Read-outs that look alike come from different tables or passages of the source.
Legend:
MuV (S. Africa) = test: microbe, parasite or virus in culture; assay type: cell-based, mumps virus strain South Africa; details: Mumps orthorubulavirus; titered through plaque assaying
RSV (Long) = test: microbe, parasite or virus in culture; assay type: cell-based, respiratory syncytial virus strain Long; details: human respiratory syncytial virus; titered through plaque assaying
in vitro = assay type: cell-based, Avian-chicken; details: chicken; DF-1; highest concentration assessed 75 µM; read-out: CC50, Metabolic Activity
Experimental: (§1) A non-radioactive cytotoxicity assay (CytoTox 96 Non-Radioactive Cytotoxicity Assay, Promega) was employed to determine the metabolic activity of cell after exposure to the compound. In a 96-well plate format, 10,000 cells per well were incubated at 37°C for 24 hours in four replicates per concentration tested in the presence of compound in two-fold dilutions starting at 75 µM. Substrate was then added and color development measured at 490 nm using a BioRad plate reader. Values were calculated according to the formula [% toxicity = 100−((experimental-background)/(maximum(vehicle treated)-background)*100)]. Values were plotted in dose-response curves and, if applicable, CC50 concentrations calculated.

HeLa cells = test: Flow-cytometric analysis of cell cycle progression; assay type: cell-based, human; details: JMN3-003 10 µM 36 hours, nocodazole 200 ng/ml
Experimental: Actively proliferating HeLa cells were exposed to JMN3-003 (10 µM), hydroxyurea (4 mM), or nocodazole (200 ng/ml) for 36 hours, followed by resuspension in buffer I (20 mM citrate/PO, pH 3.0, 0.1 mM EDTA, 0.2 M Sucrose, 0.1% Triton X-100) and staining in buffer II (10 mM Citrate/PO, pH 3.8, 0.1 M sodium chloride, 20 µg/ml acridine orange) as described. Green fluorescence at 525 nm resulting from DNA intercalating acridine orange was then measured using a BD LSRII flow cytometer and FlowJo software (Tree Star) for data analysis. For comparison, unstained and stained, solvent-only exposed cells were examined in parallel.

vaccinia virus = assay type: cell-based; details: compared with activity against myxoviruses
MeV (Alaska) = test: microbe, parasite or virus in culture; assay type: cell-based, measles virus isolate MVi/Alaska.USA/16.00; details: Measles morbillivirus
[1] = Cytotoxicity (metabolic activity), BHK-21; assay type: cell-based, Rodent-Syrian hamster; details: Syrian hamster, BHK-21 cells, highest concentration assessed 75 µM
Experimental: as §1

MeV RdRp = MeV RdRp (Measles morbillivirus (Measles virus), UniProt P12576); test: MeV minireplicon luciferase reporter assay; assay type: cell-based; details: BHK-T7 cells, 36 hours
Sequence of MeV RdRp (P12576 whole entry, change not shown): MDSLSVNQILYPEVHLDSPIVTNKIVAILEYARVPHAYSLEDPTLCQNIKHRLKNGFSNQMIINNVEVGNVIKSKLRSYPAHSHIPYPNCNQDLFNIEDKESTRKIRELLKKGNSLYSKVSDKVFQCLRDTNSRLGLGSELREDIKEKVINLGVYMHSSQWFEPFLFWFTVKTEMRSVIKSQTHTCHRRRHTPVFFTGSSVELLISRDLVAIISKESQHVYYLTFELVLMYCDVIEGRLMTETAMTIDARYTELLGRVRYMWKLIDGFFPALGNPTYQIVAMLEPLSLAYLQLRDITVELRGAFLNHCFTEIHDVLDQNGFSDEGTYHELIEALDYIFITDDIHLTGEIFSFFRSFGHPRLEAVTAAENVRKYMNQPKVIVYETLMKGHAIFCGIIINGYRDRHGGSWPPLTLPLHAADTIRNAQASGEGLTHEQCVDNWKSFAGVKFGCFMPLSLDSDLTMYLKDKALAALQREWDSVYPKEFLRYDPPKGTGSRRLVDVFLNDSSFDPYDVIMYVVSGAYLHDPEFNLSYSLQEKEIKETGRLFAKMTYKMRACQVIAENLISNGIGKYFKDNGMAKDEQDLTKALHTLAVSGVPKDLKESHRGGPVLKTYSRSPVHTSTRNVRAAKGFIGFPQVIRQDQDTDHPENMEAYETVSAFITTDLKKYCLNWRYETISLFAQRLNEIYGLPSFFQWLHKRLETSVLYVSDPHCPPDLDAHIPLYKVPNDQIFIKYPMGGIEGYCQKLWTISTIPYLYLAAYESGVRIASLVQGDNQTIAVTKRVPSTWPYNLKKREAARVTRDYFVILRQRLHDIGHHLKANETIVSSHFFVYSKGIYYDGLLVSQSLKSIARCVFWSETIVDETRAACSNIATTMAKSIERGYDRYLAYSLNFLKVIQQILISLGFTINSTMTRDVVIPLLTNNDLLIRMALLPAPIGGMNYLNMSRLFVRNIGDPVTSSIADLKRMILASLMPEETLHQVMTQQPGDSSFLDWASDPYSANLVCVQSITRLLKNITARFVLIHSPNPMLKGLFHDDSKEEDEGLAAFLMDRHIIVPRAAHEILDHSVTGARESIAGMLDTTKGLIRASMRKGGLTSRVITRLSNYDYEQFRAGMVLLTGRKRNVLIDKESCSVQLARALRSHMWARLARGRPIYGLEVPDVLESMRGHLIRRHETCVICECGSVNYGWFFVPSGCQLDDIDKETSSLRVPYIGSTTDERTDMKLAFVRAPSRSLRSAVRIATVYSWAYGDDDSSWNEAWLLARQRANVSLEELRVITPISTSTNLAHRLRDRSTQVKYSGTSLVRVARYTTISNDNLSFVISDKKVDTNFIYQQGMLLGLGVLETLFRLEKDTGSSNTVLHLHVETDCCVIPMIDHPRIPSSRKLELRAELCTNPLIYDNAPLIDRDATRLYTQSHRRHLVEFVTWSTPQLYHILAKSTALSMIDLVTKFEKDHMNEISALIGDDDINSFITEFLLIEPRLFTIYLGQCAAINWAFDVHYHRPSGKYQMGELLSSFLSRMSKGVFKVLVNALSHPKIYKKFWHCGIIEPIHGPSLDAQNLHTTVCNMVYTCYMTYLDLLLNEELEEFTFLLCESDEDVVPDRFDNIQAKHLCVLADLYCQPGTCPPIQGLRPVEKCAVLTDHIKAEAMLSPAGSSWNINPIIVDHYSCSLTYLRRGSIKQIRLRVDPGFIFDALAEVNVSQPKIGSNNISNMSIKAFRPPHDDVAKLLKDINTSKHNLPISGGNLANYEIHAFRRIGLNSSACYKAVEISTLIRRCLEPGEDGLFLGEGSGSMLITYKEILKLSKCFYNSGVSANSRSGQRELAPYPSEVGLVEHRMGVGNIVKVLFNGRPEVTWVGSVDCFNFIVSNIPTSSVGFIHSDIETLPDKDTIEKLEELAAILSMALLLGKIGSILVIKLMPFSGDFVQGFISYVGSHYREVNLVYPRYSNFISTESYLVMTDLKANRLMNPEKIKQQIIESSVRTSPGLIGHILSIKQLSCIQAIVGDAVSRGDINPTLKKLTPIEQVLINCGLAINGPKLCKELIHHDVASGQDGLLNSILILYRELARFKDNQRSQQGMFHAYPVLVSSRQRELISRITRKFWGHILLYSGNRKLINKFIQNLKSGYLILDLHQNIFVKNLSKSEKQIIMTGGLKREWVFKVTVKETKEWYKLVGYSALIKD
Sequence of MeV RdRp (P03422 whole entry partner): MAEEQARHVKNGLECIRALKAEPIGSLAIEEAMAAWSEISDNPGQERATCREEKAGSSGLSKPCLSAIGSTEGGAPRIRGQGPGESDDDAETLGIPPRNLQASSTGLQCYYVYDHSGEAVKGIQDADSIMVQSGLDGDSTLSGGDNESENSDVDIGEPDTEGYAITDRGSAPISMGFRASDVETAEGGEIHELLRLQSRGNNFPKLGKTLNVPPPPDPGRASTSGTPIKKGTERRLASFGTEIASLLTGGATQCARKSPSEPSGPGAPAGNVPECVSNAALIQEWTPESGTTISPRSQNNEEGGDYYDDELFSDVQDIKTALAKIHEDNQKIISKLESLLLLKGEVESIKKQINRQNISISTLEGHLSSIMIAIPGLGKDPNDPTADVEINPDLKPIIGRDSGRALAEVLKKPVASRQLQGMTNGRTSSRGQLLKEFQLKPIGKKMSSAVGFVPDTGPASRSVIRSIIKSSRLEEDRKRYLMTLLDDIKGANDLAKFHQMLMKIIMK
Sequence of MeV RdRp (P0DXN6 whole entry partner): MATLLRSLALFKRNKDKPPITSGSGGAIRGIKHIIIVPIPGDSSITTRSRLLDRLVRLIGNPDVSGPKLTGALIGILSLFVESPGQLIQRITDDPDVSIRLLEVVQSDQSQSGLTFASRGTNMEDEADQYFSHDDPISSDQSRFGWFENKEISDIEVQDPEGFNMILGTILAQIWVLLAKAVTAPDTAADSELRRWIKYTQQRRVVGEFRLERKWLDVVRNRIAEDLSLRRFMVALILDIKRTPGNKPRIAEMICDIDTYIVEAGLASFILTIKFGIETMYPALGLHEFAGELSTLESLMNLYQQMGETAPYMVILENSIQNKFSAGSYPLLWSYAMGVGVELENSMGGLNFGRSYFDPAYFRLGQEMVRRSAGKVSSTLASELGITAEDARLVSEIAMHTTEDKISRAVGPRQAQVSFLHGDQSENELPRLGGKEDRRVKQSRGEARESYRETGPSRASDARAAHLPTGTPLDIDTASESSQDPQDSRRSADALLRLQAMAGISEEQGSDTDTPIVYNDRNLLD
Experimental: BSR T7/5 cells (5×10^5/well) were transfected with plasmid DNAs encoding MeV-L (0.24 µg), MeV-N (0.94 µg) or MeV-P (0.29 µg) and 2 µg of the MeV luciferase minigenome reporter plasmid. Control wells included identical amounts of reporter and helper plasmids but lacked the L-encoding plasmid. At the time of transfection, JMN3-003 was added as specified, while control wells received vehicle only for comparison. Thirty-six hours post-transfection, cells were lysed with Bright GLO lysis buffer and relative luciferase activities determined using the Britelite substrate and a luminescence counter as outlined above.

[2] = Cytotoxicity (metabolic activity), HT1080; assay type: cell-based; details: human, HT1080 cells, highest concentration assessed 75 µM
Experimental: as §1

sindbis virus = assay type: cell-based; details: compared with activity against myxoviruses
[3] = Cytotoxicity (metabolic activity), MDCK; assay type: cell-based, Canine-dog; details: dog, MDCK cells, highest concentration assessed 75 µM
Experimental: as §1

[4] = system: bronchial epithelial cells; test: Metabolic activity of primary human bronchial epithelial cells; assay type: cell-based; details: 24 hours exposure
Experimental: as §1

[5] = Cytotoxicity (metabolic activity), CHO; assay type: cell-based, Rodent-Chinese hamster; details: Chinese hamster, CHO cells, highest concentration assessed 75 µM
Experimental: as §1

smooth muscle cells = test: Metabolic activity of primary human smooth muscle cells; assay type: cell-based; details: 24 hours exposure
Experimental: as §1

[6] = Cytotoxicity (metabolic activity), HeLa; assay type: cell-based; details: human, HeLa cells, highest concentration assessed 75 µM
Experimental: as §1

MeV-Alaska = test: In vitro virus adaptation (resistance induction); assay type: cell-based, measles virus; details: after 90 days of continued viral incubation
Experimental: Adaptations were carried out essentially as we have previously described. Briefly, Vero-SLAM cells were infected with MeV-Alaska at an MOI of […] and incubated in the presence of gradually increasing JMN3-003 concentrations starting at 0.5 µM. Equally infected cells treated with the virus polymerase targeted RdRp inhibitor AS-136A were examined in parallel. When cultures became over confluent, cells were reseeded for continued incubation in the presence of the same compound concentration as before. At detection of extensive cell-to-cell fusion, cell-associated viral particles were harvested, diluted 10-fold and used for parallel infections of fresh cell monolayers in the presence of compound at unchanged and doubled concentrations. Cultures treated with the highest compound concentrations in which virus-induced cytopathicity became detectable were used for further adaptation. The approach was terminated after 90 days of continued incubation or when virus-induced cytopathicity was readily detectable in the presence of 30 µM compound in accordance with previous results.

Influenza A/PR/8/34 = test: Virus yield reduction assay, influenza A/PR/8/34; assay type: cell-based, influenza A strain PR8/34 (H1N1); details: genome copy numbers of released progeny particles by TaqMan RT-PCR
Vero cells = test: Cell growth rates after compound wash-out; assay type: cell-based; details: 10 µM for 30 hours, 72-hour growth
Experimental: Vero cells were seeded at a density of 6×10^5 cells and incubated in the presence of 10 µM JMN3-003 or vehicle only for 30 hours at 37°C. Cells were then washed extensively and reseeded at a density of 1×10^5 cells per well, followed by continued incubation at 37°C and assessment of life/dead cell numbers every 24 hours using a Countess automated cell counter (Invitrogen). Cells were reseeded as before when fastest growing cultures approached confluency. Growth rates were calculated for each 24-hour time interval using the Prism software package (GraphPad Software Inc.) based on the formula Y = Y0*exp(K*X) with Y equaling life cell numbers, Y0 the Y value at the starting time (t0), and K the growth constant equaling ln(2)/doubling-time.

What does the source list for COc1ccc(-n2c(SC(C)C(=O)Nc3ccc(C)cc3Cl)nc3ccccc32)cc1 (centres unmarked) [JMN3-003]?
EC50 (MuV (S. Africa)): 33 ± 31 nM; EC50 (RSV (Long)): 70 ± 10 nM; CC50 at 24 h (in vitro): > 75000 nM; DNA content of treated cells by flow cytometry (HeLa cells): accumulation of cells in a single population with 2N DNA content; activity against vaccinia virus (vaccinia virus): to a lesser degree; EC50 (MeV (Alaska); PBMC, hPBMC from a mixed pool of healthy donors, four-parameter non-linear regression, read-out: EC50, MeV-Alaska grown on human PBMCs): 90 ± 50 nM; EC50 (MeV (Alaska); read-out: EC50, MeV (Alaska)): 30 ± 20 nM; EC50 (MeV (Alaska); Vero-Slam, comparison curve of figure 2, read-out: EC50, MeV-Alaska grown on Vero-Slam cells): 40 ± 20 nM; CC50 at 24 h [1]: > 75000 nM; concentration at which luciferase reporter expression was fully blocked (MeV RdRp): approximately 100 nM; CC50 at 24 h [2]: > 75000 nM; activity against sindbis virus (sindbis virus): to a lesser degree; CC50 at 24 h [3]: > 75000 nM; metabolic activity of primary human bronchial epithelial cells [4]: only slightly affected; CC50 at 24 h [5]: > 75000 nM; metabolic activity of primary human smooth muscle cells (smooth muscle cells): unaffected; CC50 at 24 h [6]: > 75000 nM; change of the tolerated dose (MeV-Alaska): only marginal increases in the tolerated dose; EC50 (Influenza A/PR/8/34): 10 ± 1 nM; proliferation rates after removal of compound (Vero cells): proliferation rates resumed those of untreated control cells

— publication PMC3095640, “Potent Host-Directed Small-Molecule Inhibitors of Myxovirus RNA-Dependent RNA-Polymerases” (PLoS ONE, 2011)
